Measured values reported in patent publication US6211372A, “Pharmaceutical compositions and methods for use” (priority 1999, dated 2001).

Biological target: dopamine release
Assay: Dopamine release (receptor activation/inhibition)
Format: biochemical
Conditions: for EC50: activation of dopamine release; for Emax (dopamine release): amount released relative to (S)-(-)-nicotine or tetramethylammonium ion (TMA)
Protocol: Dopamine release was measured using the techniques described in U.S. Pat. No. 5,597,919 to Dull et al. Release is expressed as a percentage of release obtained with a concentration of (S)-(-)-nicotine resulting in maximal effects. Reported EC50 values are expressed in nM, and Emax values represent the amount released relative to (S)-(-)-nicotine or tetramethylammonium ion (TMA), on a percentage basis.
Reported IC50 values are expressed in nM and represent the concentration resulting in 50% inhibition of agonist induced receptor activation. Emax values represent the amount released relative to (S)-(-)-nicotine on a percentage basis.

SMILES	EC50	Emax (dopamine release)
Cl.Cl.Cl.Nc1cncc(C2C3CC4CC(C3)CN2C4)c1 (stereo not drawn) [Sample No. 3, 1-aza-2-[5-amino-(3-pyridyl)]tricyclo[3.3.1.1^3,7]decane trihydrochloride]	> 100 µM	0%
CCOc1cncc(C2C3CC4CC(C3)CN2C4)c1 (stereo not drawn) [Sample No. 4, 1-aza-2-[5-ethoxy-(3-pyridyl)]-tricyclo-[3.3.1.1^3,7]decane]	> 100 µM	0%
CC(C)Oc1cncc(C2C3CC4CC(C3)CN2C4)c1 (stereo not drawn) [Sample No. 5, 1-aza-2-[5-isopropoxy-(3-pyridyl)]tricyclo[3.3.1.1^3,7]decane]	> 100 µM	0%
Brc1cncc(C2C3CC4CC(C3)CN2C4)c1 (stereo not drawn) [Sample No. 2, 1-aza-2-[5-bromo(3-pyridyl)]tricyclo[3.3.1.1^3,7]decane]	> 100 µM	0%
c1cncc(C2C3CC4CC(C3)CN2C4)c1 (stereo not drawn) [Sample No. 1, 1-aza-2-(3-pyridyl)-tricyclo[3.3.1.1^3,7]decane]	–	0%
